From PMC7933434, “Entropy-driven binding of gut bacterial β-glucuronidase inhibitors ameliorates irinotecan-induced toxicity” (Communications Biology, 2021)
Several values for one entry are separate records, joined by “and”; a condition that tells them apart may be missing. Equal values may be shown once.

Columns and labels:
[1] = target: T1, HsGUS (human GUS) (Homo sapiens, UniProt P08236); test: GUS inhibition assay, hydrolysis of 4-methylumbelliferyl-β-glucuronide, HsGUS; format: biochemical; set-up: GUS activity (hydrolysis rate of MUG): unit not given here
T1 construct: HsGUS was prepared as described[37]; made in house
T1 sequence (P08236 23-651): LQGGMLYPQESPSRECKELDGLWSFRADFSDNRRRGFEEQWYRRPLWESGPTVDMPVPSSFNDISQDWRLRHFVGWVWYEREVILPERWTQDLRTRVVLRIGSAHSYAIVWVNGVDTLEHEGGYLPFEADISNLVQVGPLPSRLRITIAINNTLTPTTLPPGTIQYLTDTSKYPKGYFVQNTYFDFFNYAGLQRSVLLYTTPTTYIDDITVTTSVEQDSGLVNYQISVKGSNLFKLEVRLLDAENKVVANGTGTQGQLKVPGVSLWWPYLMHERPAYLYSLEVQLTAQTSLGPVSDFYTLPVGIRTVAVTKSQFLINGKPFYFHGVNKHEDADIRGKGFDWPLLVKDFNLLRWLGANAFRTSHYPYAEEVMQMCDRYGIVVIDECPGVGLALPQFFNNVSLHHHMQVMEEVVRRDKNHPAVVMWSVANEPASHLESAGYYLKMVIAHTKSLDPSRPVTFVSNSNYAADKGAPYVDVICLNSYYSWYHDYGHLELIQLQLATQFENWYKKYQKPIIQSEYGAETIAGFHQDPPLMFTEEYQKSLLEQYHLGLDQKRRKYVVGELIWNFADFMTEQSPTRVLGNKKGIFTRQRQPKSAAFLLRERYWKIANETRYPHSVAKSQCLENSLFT

[2] = target: EcGUS (Escherichia coli GUS) (Escherichia coli, UniProt P05804); test: biochemical
[3] = target: BdGUS (Bifidobacterium dentium, UniProt D2Q7B1); test: biochemical; format: binding
[4] = target: BdGUS (Bifidobacterium dentium GUS) (Bifidobacterium dentium, UniProt D2Q7B1); test: biochemical; set-up: GUS activity (hydrolysis rate of MUG) / 1/v: unit not given here
[5] = BdGUS, Tris buffer (250 mM NaCl, 20 mM Tris, pH 8.0), 298 K
[6] = [Inhibitor 2] = 3.75 μM, [MUG] 0.375 mM
[7] = [Inhibitor 2] = 3.75 μM, [MUG] 0.75 mM
[8] = [Inhibitor 2] = 3.75 μM, [MUG] 1.5 mM
[9] = [Inhibitor 2] = 3.75 μM, [MUG] 3 mM
[10] = [Inhibitor 2] = 7.5 μM, [MUG] 0.375 mM

BdGUS, sequence (D2Q7B1 entry or part of it): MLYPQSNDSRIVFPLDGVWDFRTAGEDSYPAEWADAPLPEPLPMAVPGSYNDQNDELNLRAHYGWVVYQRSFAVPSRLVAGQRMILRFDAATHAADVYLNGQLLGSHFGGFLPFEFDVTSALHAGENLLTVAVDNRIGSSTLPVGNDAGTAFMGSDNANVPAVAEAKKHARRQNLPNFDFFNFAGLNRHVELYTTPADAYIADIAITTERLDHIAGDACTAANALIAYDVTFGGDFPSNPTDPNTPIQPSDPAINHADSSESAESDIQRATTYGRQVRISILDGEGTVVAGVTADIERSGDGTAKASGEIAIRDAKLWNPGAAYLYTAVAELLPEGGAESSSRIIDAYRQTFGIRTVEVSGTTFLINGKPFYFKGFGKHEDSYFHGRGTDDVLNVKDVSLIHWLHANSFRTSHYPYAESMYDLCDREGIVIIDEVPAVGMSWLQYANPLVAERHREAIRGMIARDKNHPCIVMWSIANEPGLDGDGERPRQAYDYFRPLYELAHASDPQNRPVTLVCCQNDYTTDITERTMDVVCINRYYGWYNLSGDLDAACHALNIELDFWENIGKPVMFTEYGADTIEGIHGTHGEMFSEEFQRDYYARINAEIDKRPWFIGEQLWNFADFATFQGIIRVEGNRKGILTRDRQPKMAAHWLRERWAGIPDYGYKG
BdGUS (Bifidobacterium dentium GUS), sequence (D2Q7B1 1-668): as the sequence (D2Q7B1 entry or part of it) above
EcGUS (Escherichia coli GUS), sequence (P05804 whole entry): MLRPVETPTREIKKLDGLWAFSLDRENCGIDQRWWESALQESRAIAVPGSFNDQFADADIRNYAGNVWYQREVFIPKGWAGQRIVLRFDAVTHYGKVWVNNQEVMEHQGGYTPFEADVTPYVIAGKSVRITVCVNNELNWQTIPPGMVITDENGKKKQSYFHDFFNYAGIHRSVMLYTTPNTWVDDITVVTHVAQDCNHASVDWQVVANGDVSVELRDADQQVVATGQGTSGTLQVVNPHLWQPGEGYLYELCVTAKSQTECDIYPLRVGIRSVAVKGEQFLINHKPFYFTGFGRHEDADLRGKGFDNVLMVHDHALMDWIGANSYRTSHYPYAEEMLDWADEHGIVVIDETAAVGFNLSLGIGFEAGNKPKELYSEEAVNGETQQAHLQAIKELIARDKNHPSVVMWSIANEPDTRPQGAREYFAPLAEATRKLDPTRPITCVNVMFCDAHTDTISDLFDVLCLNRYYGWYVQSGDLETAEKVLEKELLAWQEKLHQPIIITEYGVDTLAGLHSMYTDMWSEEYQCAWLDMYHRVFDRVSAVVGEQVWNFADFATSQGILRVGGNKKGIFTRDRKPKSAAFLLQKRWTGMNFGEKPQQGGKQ

CCC[C@@H]1NC[C@@H](O)[C@H](O)[C@H]1C(=O)O [Inhibitor 2, C6-propyl UIFG]
Ki ([1]; HsGUS, 50 mM sodium acetate pH 4.5, 37 °C): 36.1 ± 7.5 µM | GUS activity (hydrolysis rate of MUG) ([1]; [Inhibitor 2] =2 μM, [MUG] 0.1 mM): 948.853 and 951.385 | GUS activity (hydrolysis rate of MUG) ([1]; [Inhibitor 2] =2 μM, [MUG] 0.2 mM): 1632.03 and 1685.82 | GUS activity (hydrolysis rate of MUG) ([1]; [Inhibitor 2] =2 μM, [MUG] 0.4 mM): 2642.25 and 2523.4 | GUS activity (hydrolysis rate of MUG) ([1]; [Inhibitor 2] =2 μM, [MUG] 0.6 mM): 3352.21 and 3311.67 | GUS activity (hydrolysis rate of MUG) ([1]; [Inhibitor 2] =2 μM, [MUG] 0.8 mM): 3926.69 and 3841.33 | GUS activity (hydrolysis rate of MUG) ([1]; [Inhibitor 2] =2 μM, [MUG] 1.2 mM): 4682.68 and 4814.95 | GUS activity (hydrolysis rate of MUG) ([1]; [Inhibitor 2] =2 μM, [MUG] 1.6 mM): 5075.17 and 5261.75 | GUS activity (hydrolysis rate of MUG) ([1]; [Inhibitor 2] =2 μM, [MUG] 2 mM): 5616.94 and 5799.63 | GUS activity (hydrolysis rate of MUG) ([1]; [Inhibitor 2] =5 μM, [MUG] 0.1 mM): 870.401 and 901.046 | GUS activity (hydrolysis rate of MUG) ([1]; [Inhibitor 2] =5 μM, [MUG] 0.2 mM): 1774.12 and 1609.49 | GUS activity (hydrolysis rate of MUG) ([1]; [Inhibitor 2] =5 μM, [MUG] 0.4 mM): 2566.62 and 2497.87 | GUS activity (hydrolysis rate of MUG) ([1]; [Inhibitor 2] =5 μM, [MUG] 0.6 mM): 3244.91 and 3390.27 | GUS activity (hydrolysis rate of MUG) ([1]; [Inhibitor 2] =5 μM, [MUG] 0.8 mM): 3688.45 and 3865.44 | GUS activity (hydrolysis rate of MUG) ([1]; [Inhibitor 2] =5 μM, [MUG] 1.2 mM): 4481.74 and 4357.11 | GUS activity (hydrolysis rate of MUG) ([1]; [Inhibitor 2] =5 μM, [MUG] 1.6 mM): 5234.04 and 5031.9 | GUS activity (hydrolysis rate of MUG) ([1]; [Inhibitor 2] =5 μM, [MUG] 2 mM): 5683.23 and 5771.06 | GUS activity (hydrolysis rate of MUG) ([1]; [Inhibitor 2] =10 μM, [MUG] 0.1 mM): 788.919 and 835.551 | GUS activity (hydrolysis rate of MUG) ([1]; [Inhibitor 2] =10 μM, [MUG] 0.2 mM): 1388.11 and 1357.62 | GUS activity (hydrolysis rate of MUG) ([1]; [Inhibitor 2] =10 μM, [MUG] 0.4 mM): 2139.7 and 2292.26 | GUS activity (hydrolysis rate of MUG) ([1]; [Inhibitor 2] =10 μM, [MUG] 0.6 mM): 2815.06 and 3009.55 | GUS activity (hydrolysis rate of MUG) ([1]; [Inhibitor 2] =10 μM, [MUG] 0.8 mM): 3419.24 and 3416.94 | GUS activity (hydrolysis rate of MUG) ([1]; [Inhibitor 2] =10 μM, [MUG] 1.2 mM): 4195.01 and 4091.63 | GUS activity (hydrolysis rate of MUG) ([1]; [Inhibitor 2] =10 μM, [MUG] 1.6 mM): 5141.39 and 4873.96 | GUS activity (hydrolysis rate of MUG) ([1]; [Inhibitor 2] =10 μM, [MUG] 2 mM): 5569.48 and 4956.18 | GUS activity (hydrolysis rate of MUG) ([1]; [Inhibitor 2] =20 μM, [MUG] 0.1 mM): 633.046 and 650.421 | GUS activity (hydrolysis rate of MUG) ([1]; [Inhibitor 2] =20 μM, [MUG] 0.2 mM): 1058.97 and 1051.89 | GUS activity (hydrolysis rate of MUG) ([1]; [Inhibitor 2] =20 μM, [MUG] 0.4 mM): 1746.1 and 1806.97 | GUS activity (hydrolysis rate of MUG) ([1]; [Inhibitor 2] =20 μM, [MUG] 0.6 mM): 2323.32 and 2357.04 | GUS activity (hydrolysis rate of MUG) ([1]; [Inhibitor 2] =20 μM, [MUG] 0.8 mM): 2744.58 and 2819.54 | GUS activity (hydrolysis rate of MUG) ([1]; [Inhibitor 2] =20 μM, [MUG] 1.2 mM): 3443.09 and 3077.07 | GUS activity (hydrolysis rate of MUG) ([1]; [Inhibitor 2] =20 μM, [MUG] 1.6 mM): 3957.48 and 3836.46 | GUS activity (hydrolysis rate of MUG) ([1]; [Inhibitor 2] =20 μM, [MUG] 2 mM): 4613.38 and 4482.85 | GUS activity (hydrolysis rate of MUG) ([1]; [Inhibitor 2] =40 μM, [MUG] 0.1 mM): 425.121 and 430.469 | GUS activity (hydrolysis rate of MUG) ([1]; [Inhibitor 2] =40 μM, [MUG] 0.2 mM): 709.381 and 742.235 | GUS activity (hydrolysis rate of MUG) ([1]; [Inhibitor 2] =40 μM, [MUG] 0.4 mM): 1260.88 and 1281.33 | GUS activity (hydrolysis rate of MUG) ([1]; [Inhibitor 2] =40 μM, [MUG] 0.6 mM): 1728.03 and 1805.44 | GUS activity (hydrolysis rate of MUG) ([1]; [Inhibitor 2] =40 μM, [MUG] 0.8 mM): 2092.2 and 2090.09 | GUS activity (hydrolysis rate of MUG) ([1]; [Inhibitor 2] =40 μM, [MUG] 1.2 mM): 2609.86 and 2615.59 | GUS activity (hydrolysis rate of MUG) ([1]; [Inhibitor 2] =40 μM, [MUG] 1.6 mM): 3152.02 and 3056.96 | GUS activity (hydrolysis rate of MUG) ([1]; [Inhibitor 2] =40 μM, [MUG] 2 mM): 3549.78 and 3510.91 | GUS activity (hydrolysis rate of MUG) ([1]; [Inhibitor 2] =75 μM, [MUG] 0.1 mM): 269.697 and 248.688 | GUS activity (hydrolysis rate of MUG) ([1]; [Inhibitor 2] =75 μM, [MUG] 0.2 mM): 469.532 and 449.551 | GUS activity (hydrolysis rate of MUG) ([1]; [Inhibitor 2] =75 μM, [MUG] 0.4 mM): 868.241 and 807.629 | GUS activity (hydrolysis rate of MUG) ([1]; [Inhibitor 2] =75 μM, [MUG] 0.6 mM): 1207.03 and 1153.12 | GUS activity (hydrolysis rate of MUG) ([1]; [Inhibitor 2] =75 μM, [MUG] 0.8 mM): 1515.37 and 1395.3 | GUS activity (hydrolysis rate of MUG) ([1]; [Inhibitor 2] =75 μM, [MUG] 1.2 mM): 1853.64 and 1948.04 | GUS activity (hydrolysis rate of MUG) ([1]; [Inhibitor 2] =75 μM, [MUG] 1.6 mM): 2229.7 and 2415.81 | GUS activity (hydrolysis rate of MUG) ([1]; [Inhibitor 2] =75 μM, [MUG] 2 mM): 2629.91 and 2703.96 | Ki ([2]; 50 mM HEPES pH 7.5, 37 °C): 0.035 ± 0.009 µM | Ki ([2]; source data of Table 1, from plot of apparent Km against [inhibitor] (μM)): 0.0352 µM | ΔΔH1–2 (enthalpy penalty of 2 relative to 1) ([3]; BdGUS in Tris buffer): +8.5 kcal mol^−1 | –TΔΔS1–2 (2 relative to 1) ([3]; BdGUS in Tris buffer): -6.2 kcal/mol | entropy contribution to binding ([3]; BdGUS in Tris buffer, sign (positive = favourable)): +4.6 kcal mol^−1 | Kd [3, 5]: 14.5 ± 3.55 µM | ΔG [3, 5]: –6.60 ± 0.15 kcal/mol | ΔH [3, 5]: –1.97 ± 0.15 kcal/mol | —TΔS [3, 5]: –4.64 ± 0.30 kcal/mol | Ki ([4]; BdGUS, 50 mM HEPES pH 7.5, 37 °C): 4.9 ± 1.2 µM | 1/v [4, 6]: 0.7586 and 0.7898 and 0.7689 | GUS activity (hydrolysis rate of MUG) [4, 6]: 0.2944 and 0.2827 and 0.2904 | 1/v [4, 7]: 0.5053 and 0.4969 and 0.4765 | GUS activity (hydrolysis rate of MUG) [4, 7]: 0.4419 and 0.4494 and 0.4686 | 1/v [4, 8]: 0.3454 and 0.3517 and 0.3523 | GUS activity (hydrolysis rate of MUG) [4, 8]: 0.6465 and 0.6349 and 0.6338 | 1/v [4, 9]: 0.3078 and 0.2975 and 0.297 | GUS activity (hydrolysis rate of MUG) [4, 9]: 0.7254 and 0.7507 and 0.7517 | 1/v [4, 10]: 0.9443 and 1.067 and 1.0389 | GUS activity (hydrolysis rate of MUG) [4, 10]: 0.2365 and 0.2092 and 0.2149
